35 molecules from ChEMBL document CHEMBL1154657, “Heterobiaryl purine derivatives as potent antiproliferative agents: inhibitors of cyclin dependent kinases. Part II” (Bioorg Med Chem Lett, 2009) can be followed below.

One may read the GI50 as the concentration at which growth is held to half of that of the control. By IC50 is commonly meant the concentration that inhibits the measured activity by half.

Assay [1] in a line: Growth inhibition of human HeLaS3 cells. It is filed as functional. Conditions: HeLa S3.
The target of assay [2] is Cyclin-dependent kinase 2/cyclin E (Homo sapiens, UniProt P24941). As to the kind of experiment: Inhibition of Cdk2/cyclinE. It is filed as protein-complex assay.
Assay [3] addresses Cyclin-dependent kinase 2/cyclin A (Homo sapiens, UniProt P24941). Kind of assay: Inhibition of recombinant Cdk2/cyclinA. It counts as protein-complex assay.

`CC(C)n1cnc2c(NCc3ccc(-c4cccnc4)cc3)nc(N[C@H]3CC[C@H](N)CC3)nc21` showed a GI50 in assay [1] of 140 nM. Moreover, the IC50 was determined as 70 nM in assay [2] and 300 nM in assay [3].
Taken in the same sequence, the figures for `CC(C)n1cnc2c(NCc3cnc(-c4ccccc4)s3)nc(N[C@H]3CC[C@H](N)CC3)nc21` were 200 nM, under 50 nM and under 50 nM.
Molecule `CC(C)n1cnc2c(NCc3csc(-c4ccccc4)n3)nc(N[C@H]3CC[C@H](N)CC3)nc21` gave a 50% growth inhibitory concentration (GI50) in assay [1] of 4000 nM. For the same molecule, the 50% inhibitory concentration (IC50) turned out to be 400 nM in assay [2] and 700 nM in assay [3].
The corresponding values for `CC(C)n1cnc2c(NCc3ccc(-c4ccccn4)nc3)nc(N[C@H]3CC[C@H](N)CC3)nc21` are 310 nM, 30 nM and 90 nM.
`Cc1csc(-c2ccc(CNc3nc(N[C@H]4CC[C@H](N)CC4)nc4c3ncn4C(C)C)cc2)c1` gave a GI50 in assay [1] of 400 nM. Further, the IC50 in assay [2] was determined as 200 nM; in assay [3], 500 nM.
The corresponding values for `CC(C)n1cnc2c(NCc3ccc(-c4cccs4)s3)nc(N[C@H]3CC[C@H](N)CC3)nc21` are 300 nM, 55 nM and 140 nM.
Taken in the same sequence, the figures for `CC(C)n1cnc2c(NCc3ccc(-c4ccccc4)cn3)nc(N[C@H]3CC[C@H](N)CC3)nc21` were 500 nM, 400 nM and 500 nM.
The molecule `Cc1cccc(-c2ccc(CNc3nc(N[C@H]4CC[C@H](N)CC4)nc4c3ncn4C(C)C)s2)c1` registered a concentration for 50% growth inhibition (GI50) in assay [1] of 200 nM. Also, the IC50 turned out to be 200 nM in assay [2] and 700 nM in assay [3].
As for `CC(C)n1cnc2c(NCc3ccc(-n4cccn4)nc3)nc(N[C@H]3CC[C@H](N)CC3)nc21`, the concentration for 50% growth inhibition (GI50) in assay [1] came to 20 nM. In addition, the IC50 in assay [2] was determined as 50 nM; in assay [3], 70 nM.
`CC(C)n1cnc2c(NCc3ccc(-c4cccc(F)c4)nc3)nc(N[C@H]3CC[C@H](N)CC3)nc21`: the GI50 in assay [1] is 16 nM. For the same molecule, the IC50 came out at 40 nM in assay [2] and 80 nM in assay [3].
Taken in the same sequence, the figures for `CC(C)n1cnc2c(NCc3ccc(-c4ccc(F)cc4)s3)nc(N[C@H]3CC[C@H](N)CC3)nc21` were 390 nM, 300 nM and 500 nM.
The corresponding values for `CC(C)n1cnc2c(NCc3ccc(-c4ccccn4)s3)nc(N[C@H]3CC[C@H](N)CC3)nc21` are 270 nM, 44 nM and 1500 nM.
With `CC(C)n1cnc2c(NCc3ccc(-c4ccccc4)cc3)nc(N[C@H]3CC[C@H](N)CC3)nc21`, the half-maximal inhibitory concentration (IC50) was found to be 100 nM in assay [2] and 400 nM in assay [3].
For `CC(C)n1cnc2c(NCc3coc(-c4ccccc4)c3)nc(N[C@H]3CC[C@H](N)CC3)nc21`, in assay [1], it took 330 nM to inhibit growth by half (GI50). In addition, the values for the 50% inhibitory concentration (IC50) in assay [2] and in assay [3] were 150 nM and 300 nM, respectively.
Taken in the same sequence, the figures for `CC(C)n1cnc2c(NCc3ccc(-c4ccccc4)nc3)nc(N[C@H]3CC[C@H](N)CC3)nc21` were 71 nM, 40 nM and 100 nM.
The corresponding values for `CC(C)n1cnc2c(NCc3csc(-c4ccccc4)c3)nc(N[C@H]3CC[C@H](N)CC3)nc21` are 370 nM, 85 nM and 250 nM.
The molecule `CC(C)n1cnc2c(NCc3ccc(-c4ccoc4)s3)nc(N[C@H]3CC[C@H](N)CC3)nc21` had a GI50 in assay [1] of 2000 nM. The IC50 in assay [2] amounted to 200 nM; in assay [3], 600 nM.
Taken in the same sequence, the figures for `CC(C)n1cnc2c(NCc3ccc(-n4cccn4)cc3)nc(N[C@H]3CC[C@H](N)CC3)nc21` were 170 nM, 950 nM and 140 nM.
Taken in the same sequence, the figures for `CC(C)n1cnc2c(NCc3ccc(-c4ccsc4)s3)nc(N[C@H]3CC[C@H](N)CC3)nc21` were 150 nM, 200 nM and 300 nM.
The corresponding values for `CC(C)n1cnc2c(NCc3ccc(-c4ccco4)cc3)nc(N[C@H]3CC[C@H](N)CC3)nc21` are 30 nM, 90 nM and 150 nM.
Molecule `COc1cccc(-c2ccc(CNc3nc(N[C@H]4CC[C@H](N)CC4)nc4c3ncn4C(C)C)s2)c1` gave a 50% growth inhibitory concentration (GI50) in assay [1] of 160 nM. Also, the figures for the concentration for half-maximal inhibition (IC50) in assay [2] and in assay [3] were 100 nM and 300 nM, respectively.
The molecule `Cc1csc(-c2ccc(CNc3nc(N[C@H]4CC[C@H](N)CC4)nc4c3ncn4C(C)C)s2)n1` registered a GI50 in assay [1] of 40 nM. Also, in assay [3], the IC50 stood at 100 nM.
In turn, `CC(C)n1cnc2c(NCc3ccc(-c4cccc(F)c4)s3)nc(N[C@H]3CC[C@H](N)CC3)nc21` displayed a concentration for 50% growth inhibition (GI50) in assay [1] of 190 nM. The 50% inhibitory concentration (IC50) turned out to be 90 nM in assay [2] and 250 nM in assay [3].
As for `CC(C)n1cnc2c(NCc3ccc(-c4cccs4)nc3)nc(N[C@H]3CC[C@H](N)CC3)nc21`, in assay [1], the 50% growth inhibitory concentration (GI50) amounted to 98 nM. For the same molecule, the half-inhibitory concentration (IC50) in assay [3] turned out to be 900 nM.
Take `CC(C)n1cnc2c(NCc3ccc(-c4cccs4)cc3)nc(N[C@H]3CC[C@H](N)CC3)nc21`: growth in assay [1] was halved (GI50) at 48 nM. Besides, the IC50 turned out to be 90 nM in assay [2] and 100 nM in assay [3].
The corresponding values for `CC(C)n1cnc2c(NCc3ccc(-c4ccccc4F)s3)nc(N[C@H]3CC[C@H](N)CC3)nc21` are 300 nM, 80 nM and 400 nM.
The corresponding values for `CC(C)n1cnc2c(NCc3ccc(-c4ccco4)s3)nc(N[C@H]3CC[C@H](N)CC3)nc21` are 300 nM, 100 nM and 200 nM.
As to `CC(C)n1cnc2c(NCc3ccc(-n4cccc4)cc3)nc(N[C@H]3CC[C@H](N)CC3)nc21`, the 50% growth inhibitory concentration (GI50) in assay [1] worked out at 20 nM. In addition, the half-inhibitory concentration (IC50) in assay [2] and in assay [3] was 200 nM throughout.
In assay [1], `CC(C)n1cnc2c(NCc3ccc(-c4ccccn4)cc3)nc(N[C@H]3CC[C@H](N)CC3)nc21` returned a GI50 of 44 nM. The IC50 turned out to be 100 nM in assay [2] and 200 nM in assay [3].
In turn, `CC[C@H](CO)Nc1nc(NCc2ccccc2)c2ncn(C(C)C)c2n1` [SELICICLIB] showed a 50% growth inhibitory concentration (GI50) in assay [1] of 20000 nM.
Turning to `Cc1ccc(-c2ccc(CNc3nc(N[C@H]4CC[C@H](N)CC4)nc4c3ncn4C(C)C)cc2)s1`, growth in assay [1] was halved (GI50) at 400 nM. For the same molecule, the IC50 in assay [2] turned out to be 200 nM; in assay [3] it was 600 nM.
In assay [1], `CC(C)n1cnc2c(NCc3ccc(-c4ccsc4)nc3)nc(N[C@H]3CC[C@H](N)CC3)nc21` came in with a concentration for 50% growth inhibition (GI50) of 27 nM. The concentration for half-maximal inhibition (IC50) in assay [2] was under 30 nM; in assay [3], 100 nM.
The molecule `CC(C)n1cnc2c(NCc3ccc(-c4ccsc4)cc3)nc(N[C@H]3CC[C@H](N)CC3)nc21` came in with a 50% growth inhibitory concentration (GI50) in assay [1] of 40 nM. Besides, the IC50 in assay [2] amounted to 200 nM; in assay [3] it was 400 nM.
Taken in the same sequence, the figures for `CC(C)n1cnc2c(NCc3ccc(-c4cccnc4)s3)nc(N[C@H]3CC[C@H](N)CC3)nc21` were 200 nM, 100 nM and 200 nM.
The corresponding values for `CC(C)n1cnc2c(NCc3ccc(-c4ccc(Cl)s4)cc3)nc(N[C@H]3CC[C@H](N)CC3)nc21` are 380 nM, 300 nM and 400 nM.
